Results: PubChem BioAssay AID248 (DTP/NCI, 2004)
Several values for one entry are separate records, joined by “and”; a condition that tells them apart may be missing. Identical values can stand only once. Toxic doses and inconclusive results are not listed. Rule as the data show it: active = T/C of 150% or more; inactive = T/C below 125%.

Tested on: L1210 leukemia ip in BDF1 mice, survival T/C
Assay: NCI In Vivo Anticancer Drug Screen. Data for tumor model L1210 Leukemia (intraperitoneal) in B6D2F1 (BDF1) mice
Details: endpoint: mean survival time, higher = longer survival
Summary of the method: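 Value reflects the ratio of survival in compound-treated mice to survival in vehicle-treated controls, with both groups carrying the same transplanted tumor.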

[1] = dose: 100.0 mg/kg/injection, schedule: Q04DX002 (ip), vehicle: saline with Tween-80
[2] = dose: 200.0 mg/kg/injection, schedule: Q04DX002 (ip), vehicle: saline with Tween-80
[3] = dose: 400.0 mg/kg/injection, schedule: Q04DX002 (ip), vehicle: saline with Tween-80
[4] = dose: 100.0 mg/kg/injection, schedule: Q01DX009 (ip), vehicle: saline with Tween-80
[5] = dose: 100.0 mg/kg/injection, schedule: Q04DX003 (ip), vehicle: saline with Tween-80
[6] = dose: 200.0 mg/kg/injection, schedule: Q01DX009 (ip), vehicle: saline with Tween-80
[7] = dose: 200.0 mg/kg/injection, schedule: Q04DX003 (ip), vehicle: saline with Tween-80
[8] = dose: 400.0 mg/kg/injection, schedule: Q01DX001 (ip), vehicle: saline with Tween-80
[9] = dose: 400.0 mg/kg/injection, schedule: Q04DX003 (ip), vehicle: saline with Tween-80
[10] = dose: 50.0 mg/kg/injection, schedule: Q01DX009 (ip), vehicle: Klucel (hydroxypropylcellulose) (HPC)
[11] = dose: 100.0 mg/kg/injection, schedule: Q01DX009 (ip), vehicle: Klucel (hydroxypropylcellulose) (HPC)
[12] = dose: 200.0 mg/kg/injection, schedule: Q01DX009 (ip), vehicle: Klucel (hydroxypropylcellulose) (HPC)
[13] = dose: 100.0 mg/kg/injection, schedule: Q04DX003 (ip), vehicle: Klucel (hydroxypropylcellulose) (HPC)
[14] = dose: 200.0 mg/kg/injection, schedule: Q04DX003 (ip), vehicle: Klucel (hydroxypropylcellulose) (HPC)
[15] = dose: 400.0 mg/kg/injection, schedule: Q01DX009 (ip), vehicle: Klucel (hydroxypropylcellulose) (HPC)
[16] = dose: 400.0 mg/kg/injection, schedule: Q04DX003 (ip), vehicle: Klucel (hydroxypropylcellulose) (HPC)
[17] = dose: 25.0 mg/kg/injection, schedule: Q01DX009 (ip), vehicle: Klucel (hydroxypropylcellulose) (HPC)
[18] = dose: 100.0 mg/kg/injection, schedule: Q04DX003 (ip), vehicle: saline
[19] = dose: 200.0 mg/kg/injection, schedule: Q04DX003 (ip), vehicle: saline
[20] = dose: 400.0 mg/kg/injection, schedule: Q04DX003 (ip), vehicle: saline

Measured: T/C

C/C(=C\C(C)(C)C(C)(C)C)C(C)(C)C
inactive: dose: 50.0 mg/kg/injection, schedule: Q04DX002 (ip), vehicle: saline with Tween-80 100 % of control | [1] 95 % of control | [2] 92 % of control | [3] 92 % of control

O=C(Nc1cccc2ccccc12)OCc1ccco1
inactive: dose: 100.0 mg/kg/injection, schedule: Q01DX001 (ip), vehicle: saline with Tween-80 96 % of control | [4] 93 % of control and 96 % of control | [1] 96 % of control and 118 % of control | [5] 105 % of control | dose: 200.0 mg/kg/injection, schedule: Q01DX001 (ip), vehicle: saline with Tween-80 97 % of control | [6] 100 % of control and 86 % of control | [2] 96 % of control and 91 % of control | [7] 100 % of control | [8] 103 % of control | dose: 400.0 mg/kg/injection, schedule: Q01DX009 (ip), vehicle: saline with Tween-80 93 % of control and 94 % of control | [3] 104 % of control | [9] 103 % of control

COc1cc(N=O)ccc1O
inactive: [10] 106 % of control | [11] 103 % of control | [12] 100 % of control

CC1(C)CCC2=C1CC[C@H]1[C@H]2CCC2=CC(=O)CC[C@@]21C
inactive: dose: 50.0 mg/kg/injection, schedule: Q01DX001 (sc), vehicle: steriod suspending solution 102 % of control | dose: 100.0 mg/kg/injection, schedule: Q01DX001 (sc), vehicle: steriod suspending solution 96 % of control | dose: 200.0 mg/kg/injection, schedule: Q01DX001 (sc), vehicle: steriod suspending solution 102 % of control | dose: 400.0 mg/kg/injection, schedule: Q01DX001 (sc), vehicle: steriod suspending solution 102 % of control

CCOC(=O)Cc1cnc(SC)nc1Cl
inactive: dose: 50.0 mg/kg/injection, schedule: Q01DX009 (ip), vehicle: saline with Tween-80 98 % of control | [4] 91 % of control | [5] 92 % of control | [6] 88 % of control | [7] 92 % of control

CC(C)CC1NC(=O)C(C(C)C)NC(=O)CC(C)COC(=O)C(CC(C)C)N(C)C(=O)C(C(C)C)NC(=O)C(C(C)C)OC1=O (stereo unspecified)
inactive: dose: 75.0 mg/kg/injection, schedule: Q01DX001 (ip), vehicle: carboxymethylcellulose (CMC) 96 % of control | dose: 150.0 mg/kg/injection, schedule: Q01DX001 (ip), vehicle: carboxymethylcellulose (CMC) 96 % of control

COCc1cc(C(C)(C)C)c(O)c(C(C)(C)C)c1
inactive: [11] 94 % of control | [13] 98 % of control | [12] 89 % of control | [14] 96 % of control | [15] 89 % of control | [16] 88 % of control

O=C(NC(=S)Nc1ccc(Cl)cc1)c1ccccc1
inactive: [17] 95 % of control | [10] 93 % of control | [11] 93 % of control and 89 % of control

CN(C)Cc1cc(C(C)(C)C)ccc1-c1ccc(C(C)(C)C)cc1CN(C)C
inactive: dose: 12.5 mg/kg/injection, schedule: Q01DX009 (ip), vehicle: gum acacia 91 % of control | dose: 25.0 mg/kg/injection, schedule: Q01DX009 (ip), vehicle: gum acacia 96 % of control | dose: 50.0 mg/kg/injection, schedule: Q01DX009 (ip), vehicle: gum acacia 86 % of control

CSc1nnc(-c2ccc(OCCOc3ccc(C(C)(C)CC(C)(C)C)cc3)cc2)s1
inactive: [5] 89 % of control | [7] 94 % of control | [9] 91 % of control

O=C(Nc1ccccc1C(=O)N/N=C/CCc1ccccc1)c1ccccc1Cl
inactive: [11] 101 % of control | [12] 97 % of control | [15] 92 % of control

Fc1nc(F)nc(F)n1
inactive: dose: 12.0 mg/kg/injection, schedule: Q01DX009 (ip), vehicle: Klucel (hydroxypropylcellulose) (HPC) 89 % of control | [17] 94 % of control | [10] 112 % of control | [18] 90 % of control | [19] 100 % of control | [20] 102 % of control

COc1ccc(C(C#N)CC(=O)c2ccc(OC)c(OCc3ccccc3)c2)cc1OC (stereo unspecified)
inactive: dose: 25.0 mg/kg/injection, schedule: Q01DX009 (ip), vehicle: saline 96 % of control | dose: 50.0 mg/kg/injection, schedule: Q01DX009 (ip), vehicle: saline 102 % of control | dose: 100.0 mg/kg/injection, schedule: Q01DX009 (ip), vehicle: saline 101 % of control | dose: 200.0 mg/kg/injection, schedule: Q01DX009 (ip), vehicle: saline 101 % of control

O=C(CCl)Nc1cc(Cl)ccc1N1CCCCC1
inactive: dose: 100.0 mg/kg/injection, schedule: Q01DX009 (ip), vehicle: acetone 100 % of control | dose: 200.0 mg/kg/injection, schedule: Q01DX009 (ip), vehicle: acetone 91 % of control | dose: 400.0 mg/kg/injection, schedule: Q01DX009 (ip), vehicle: acetone 91 % of control

CCOC(=O)CCN(CC)CC
inactive: [18] 97 % of control | [19] 94 % of control | [20] 108 % of control

Cc1ccc2c(c1)NP(=S)(c1ccccc1)N2 (stereo unspecified)
inactive: [5] 103 % of control | [7] 103 % of control | [9] 100 % of control

C[As](=O)(O)c1ccc(N)cc1
inactive: dose: 25.0 mg/kg/injection, schedule: Q04DX003 (ip), vehicle: Klucel (hydroxypropylcellulose) (HPC) 95 % of control | dose: 50.0 mg/kg/injection, schedule: Q04DX003 (ip), vehicle: Klucel (hydroxypropylcellulose) (HPC) 93 % of control | [13] 90 % of control and 92 % of control

CCOC(=O)C1CCC/C1=N\N=C(N)N (stereo unspecified) (tested in a mixture with another compound)
inactive: dose: 15.0 mg/kg/injection, schedule: Q01DX Z (ip), vehicle: methylcellulose (MC) 95 % of control | dose: 30.0 mg/kg/injection, schedule: Q01DX Z (ip), vehicle: methylcellulose (MC) 102 % of control | dose: 60.0 mg/kg/injection, schedule: Q01DX Z (ip), vehicle: methylcellulose (MC) 104 % of control | dose: 60.0 mg/kg/injection, schedule: Q01DX Z (oral), vehicle: methylcellulose (MC) 86 % of control | dose: 120.0 mg/kg/injection, schedule: Q01DX Z (ip), vehicle: methylcellulose (MC) 97 % of control | dose: 120.0 mg/kg/injection, schedule: Q01DX Z (oral), vehicle: methylcellulose (MC) 94 % of control | dose: 240.0 mg/kg/injection, schedule: Q01DX Z (oral), vehicle: methylcellulose (MC) 92 % of control

Cc1ccc2nc(/C=C/c3ccc(N(C)C)cc3)cc(C)c2c1
inactive: dose: 25.0 mg/kg/injection, schedule: Q01DX Z (ip), vehicle: carboxymethylcellulose (CMC) 89 % of control | dose: 100.0 mg/kg/injection, schedule: Q01DX Z (ip), vehicle: carboxymethylcellulose (CMC) 96 % of control | dose: 200.0 mg/kg/injection, schedule: Q01DX Z (ip), vehicle: carboxymethylcellulose (CMC) 100 % of control

CCCCCCCC(O)CCCC (stereo unspecified)
inactive: [11] 100 % of control | [13] 95 % of control | [12] 104 % of control | [14] 103 % of control | [15] 104 % of control | [16] 98 % of control

Cc1cc([N+](=O)[O-])c2ccccc2[n+]1[O-]
inactive: dose: 25.0 mg/kg/injection, schedule: Q01DX009 (ip), vehicle: saline with Tween-80 96 % of control

O=C1NC(=O)C2(CCc3ccccc3C2)N1 (stereo unspecified)
inactive: [10] 96 % of control | [11] 96 % of control | [13] 100 % of control | dose: 100.0 mg/kg/injection, schedule: Q04DX003 (ip), vehicle: acetone 96 % of control | [12] 93 % of control | [14] 97 % of control | dose: 200.0 mg/kg/injection, schedule: Q04DX003 (ip), vehicle: acetone 95 % of control | [16] 97 % of control | dose: 400.0 mg/kg/injection, schedule: Q04DX003 (ip), vehicle: acetone 95 % of control

O=C(Nc1cccc(C(F)(F)F)c1)Nc1cccc(C(F)(F)F)c1
inactive: dose: 100.0 mg/kg/injection, schedule: Q01DX001 (ip), vehicle: Klucel (hydroxypropylcellulose) (HPC) 94 % of control and 91 % of control | [5] 97 % of control and 87 % of control | dose: 200.0 mg/kg/injection, schedule: Q01DX001 (ip), vehicle: Klucel (hydroxypropylcellulose) (HPC) 98 % of control | [7] 99 % of control and 87 % of control | dose: 400.0 mg/kg/injection, schedule: Q01DX001 (ip), vehicle: Klucel (hydroxypropylcellulose) (HPC) 94 % of control | [9] 97 % of control and 89 % of control

OC1CCc2c(Cl)sc(Cl)c21 (stereo unspecified)
inactive: [8] 98 % of control

O=P(OCCCl)(OCCCl)OCCCl
inactive: [18] 102 % of control | [19] 102 % of control | [20] 103 % of control
